≈ marks a conversion by molar mass, not a printed value.
Key:
Type in all cases: cell-based
[1] = tested on: nasopharyngeal carcinoma cell CNE-1; assay: MTT anti-tumor experiment in vitro, inhibition of nasopharyngeal carcinoma cell CNE-1
Experimental: (§1) Experiment 1, anti-tumor experiment of MTT in vitro
Inhibition experiment of nasopharyngeal carcinoma cell CNE-1
(§2) F1, 0.25% trypsin was added to nasopharyngeal carcinoma cell CNE-1 in the logarithmic growth phase for cell dissociation until adherent cells were failed off. Cell suspension containing 2×10^4 nasopharyngeal carcinoma cells CNE-1 per mL was prepared.
(§3) F2, a 96-well plate was taken, one row of the 96-well plate was set as a blank group, 9 rows were set as the experimental group 1, one row was set as the experimental group 2, and one row was set as the negative control group, wherein 6 wells in the middle of each row were used for the experiment and was added of 100 μL of RPMI-1640 medium, wherein the medium of negative control group contained 1% DMSO.
(§4) F3, 100 μL of cell suspension was added to each well of the blank group, the experimental group 1, the experimental group 2, and the negative control group. Then, the 96-well plate was placed in an incubator at 37 degree Celsius, 5% CO2, and 95% humidity, and cultured in the incubator for 12 hours. 100 μL phenylbenzofuran compound (phenylbenzofuran compound of embodiment 3) with a concentration was added to wells of each row of 9 rows in the experimental group 1, ie, 10 μg/mL, 20 μg/mL, 30 μg/mL, 40 μg/mL, 50 μg/mL, 60 μg/mL, 70 μg/mL, 80 μg/mL, and 90 μg/mL, wherein the concentration of phenylbenzofuran compound of wells in the same row was equal. As a parallel experiment, cisplatin (80 μg/mL, 100 μL) was added to wells of a row in the experimental group 2. Then, the 96-well plate was placed in an incubator at 37 degree Celsius, 5% CO2, and 95% humidity, and cultured in the incubator for 48 hours. MTT (5 mg/mL, 20 μL) was added to each well. Then, the 96-well plate was placed in an incubator at 37 degree Celsius, 5% CO2, and 95% humidity, and cultured in the incubator for 4 hours. The supernatant as removed by a pipette tip, 150 μL of DMSO was added, and the mixture was shaken for 10 minutes in a micro shaker to cause complete dissolution of crystal. The OD value of each well was measured at a wavelength of 570 nm by a microplate reader, and the IC50 value was calculated. That is, the concentration when the inhibition rate of the cells reached 50% was the IC50 value.
Proliferation rate of CNE-1 cell=(average of experimental group-average of blank control group)/(average of negative control group-average of blank control group)×100%.
Inhibition rate of CNE-1 cell=[…] of CNE-1 cell.

[2] = tested on: nasopharyngeal carcinoma cell CNE-2; assay: MTT anti-tumor experiment in vitro, inhibition of nasopharyngeal carcinoma cell CNE-2
Experimental: as §1, §2, §3, §4
Inhibition experiment of nasopharyngeal carcinoma cell CNE-2
The experimental procedure of the inhibition experiment of nasopharyngeal carcinoma cell CNE-2 was the same as that of the inhibition experiment of nasopharyngeal carcinoma cell CNE-1, except that the nasopharyngeal carcinoma cell CNE-1 was replaced with the nasopharyngeal carcinoma cell CNE-2.

[3] = tested on: nasopharyngeal carcinoma cell CNE-1; assay: MTT anti-tumor experiment in vitro, inhibition of nasopharyngeal carcinoma cell CNE-1; settings: 100 μg/mL, 48 hours, read-out: Inhibition rate of nasopharyngeal carcinoma cells (%) CNE-1
[4] = tested on: nasopharyngeal carcinoma cell CNE-2; assay: MTT anti-tumor experiment in vitro, inhibition of nasopharyngeal carcinoma cell CNE-2; settings: Homo sapiens, 100 μg/mL, 48 hours, read-out: Inhibition rate of nasopharyngeal carcinoma cells (%) CNE-2

N.N.[Cl][Pt][Cl] [Cisplatin, cisplatin, reference compound]
Inhibition rate of nasopharyngeal carcinoma cells (%) CNE-1 ([1]; 80 μg/mL, 48 hours, MTT): 94.21 ± 0.18%
Inhibition rate of nasopharyngeal carcinoma cells (%) CNE-2 ([2]; 80 μg/mL, 48 hours, MTT): 97.37 ± 0.49%

Oc1ccc(-c2cc3cc4c(cc3o2)OCO4)c(O)c1 [Phenylbenzofuran compound]
inhibition at 10 µg/mL ([1]; 10 μg/mL, 48 hours, MTT, read-out: Inhibition rate of nasopharyngeal carcinoma cells (%) CNE-1): 25 ± 0.07%
inhibition at 20 µg/mL ([1]; 20 μg/mL, 48 hours, MTT, read-out: Inhibition rate of nasopharyngeal carcinoma cells (%) CNE-1): 37.57 ± 0.03%
inhibition at 30 µg/mL ([1]; 30 μg/mL, 48 hours, MTT, read-out: Inhibition rate of nasopharyngeal carcinoma cells (%) CNE-1): 45.52 ± 0.07%
inhibition at 40 µg/mL ([1]; 40 μg/mL, 48 hours, MTT, read-out: Inhibition rate of nasopharyngeal carcinoma cells (%) CNE-1): 60.37 ± 0.06%
inhibition at 50 µg/mL ([1]; 50 μg/mL, 48 hours, MTT, read-out: Inhibition rate of nasopharyngeal carcinoma cells (%) CNE-1): 68.5 ± 0.09%
inhibition at 60 µg/mL ([1]; 60 μg/mL, 48 hours, MTT, read-out: Inhibition rate of nasopharyngeal carcinoma cells (%) CNE-1): 75.01 ± 0.13%
inhibition at 70 µg/mL ([1]; 70 μg/mL, 48 hours, MTT, read-out: Inhibition rate of nasopharyngeal carcinoma cells (%) CNE-1): 85.83 ± 0.06%
inhibition at 80 µg/mL ([1]; 80 μg/mL, 48 hours, MTT, read-out: Inhibition rate of nasopharyngeal carcinoma cells (%) CNE-1): 97.02 ± 0.11%
inhibition at 90 µg/mL ([1]; 90 μg/mL, 48 hours, MTT, read-out: Inhibition rate of nasopharyngeal carcinoma cells (%) CNE-1): 97.81 ± 0.06%
IC50 ([1]; CNE-1, 48 hours, read-out: concentration at which the inhibition rate reaches half inhibition growth effect): 20 µg/mL (≈ 74 µM)
inhibition at 10 µg/mL ([2]; Homo sapiens, CNE-2, 10 μg/mL, 48 hours, MTT, read-out: Inhibition rate of nasopharyngeal carcinoma cells (%) CNE-2): 28.4 ± 0.36%
inhibition at 20 µg/mL ([2]; Homo sapiens, CNE-2, 20 μg/mL, 48 hours, MTT, read-out: Inhibition rate of nasopharyngeal carcinoma cells (%) CNE-2): 43.61 ± 0.29%
inhibition at 30 µg/mL ([2]; Homo sapiens, CNE-2, 30 μg/mL, 48 hours, MTT, read-out: Inhibition rate of nasopharyngeal carcinoma cells (%) CNE-2): 48.5 ± 0.6%
inhibition at 40 µg/mL ([2]; Homo sapiens, CNE-2, 40 μg/mL, 48 hours, MTT, read-out: Inhibition rate of nasopharyngeal carcinoma cells (%) CNE-2): 75.18 ± 0.09%
inhibition at 50 µg/mL ([2]; Homo sapiens, CNE-2, 50 μg/mL, 48 hours, MTT, read-out: Inhibition rate of nasopharyngeal carcinoma cells (%) CNE-2): 84.42 ± 0.44%
inhibition at 60 µg/mL ([2]; Homo sapiens, CNE-2, 60 μg/mL, 48 hours, MTT, read-out: Inhibition rate of nasopharyngeal carcinoma cells (%) CNE-2): 95.13 ± 0.22%
inhibition at 70 µg/mL ([2]; Homo sapiens, CNE-2, 70 μg/mL, 48 hours, MTT, read-out: Inhibition rate of nasopharyngeal carcinoma cells (%) CNE-2): 97.27 ± 0.6%
inhibition at 80 µg/mL ([2]; Homo sapiens, CNE-2, 80 μg/mL, 48 hours, MTT, read-out: Inhibition rate of nasopharyngeal carcinoma cells (%) CNE-2): 98.78 ± 0.09%
inhibition at 90 µg/mL ([2]; Homo sapiens, CNE-2, 90 μg/mL, 48 hours, MTT, read-out: Inhibition rate of nasopharyngeal carcinoma cells (%) CNE-2): 98.82 ± 0.44%
IC50 ([2]; Homo sapiens, CNE-2, 48 hours, read-out: concentration at which the inhibition rate reaches half inhibition growth effect): 15 µg/mL (≈ 55.5 µM)
inhibition at 100 µg/mL [3]: 97.41 ± 0.02%
inhibition at 100 µg/mL [4]: 98.64 ± 0.22%

Source: patent US11208419B2, “Phenylbenzofuran compound, preparation method therefor, composition containing the same and medical application thereof” (Guangxi Botanical Garden of Medicinal Plants, priority 2018, dated 2021)
